Where a name gives a salt, the structure may show the parent alone.
Molecular target: T1, human Kv1.5 channels (Homo sapiens, UniProt P22460)
T1 construct: Full-length human Kv1.5 cDNA was cloned from a human heart cDNA library; expressed in transfected cells; host or cells: CHO-K1
Assay: Measurement of human Kv1.5 channel current by whole-cell patch clamp method (human Kv1.5-expressing CHO-K1 cell line)
Assay type: cell-based
Details: human Kv1.5-expressing CHO-K1 cells, step end current at +40 mV, test compound 0.1, 1, 10 μM
Method: Pharmacological Test 1 (1) Production of Human Kv1.5-Expressing CHO-K1 Cell Lines
CHO-K1 cell lines stably expressing human Kv1.5 channels were prepared in the following manner.
Full-length human Kv1.5 cDNA was cloned from a human heart cDNA library (produced by Stratagene). The obtained human Kv1.5 sequence corresponds to the sequence described in FASEB J. 5, 331-337 (1991).
The obtained human Kv1.5 cDNA was inserted into a plasmid encoding a CMV promoter and a G418 resistance marker to produce a Kv1.5 expression vector. The human Kv1.5 expression vector was transfected into CHO-K1 cells by the lipofectamine method. After culturing the cells in an F-12 medium (produced by Invitrogen Corp.) containing 10% FBS (produced by Invitrogen Corp.) for 3 or 4 days, the medium was replaced with a FBS-containing F-12 medium that included 1,000 μg/ml of G418 (produced by Invitrogen Corp.), and single colonies were isolated. The amount of Kv1.5 channel expression in the single colonies was quantified at the mRNA level by RT-PCR and then quantified at the protein level by western blotting. Finally, the expressed current was analyzed by patch clamp method. Cell lines expressing a current of 200 pA or more per cell were selected as channel-expressing cell lines for activity measurement by patch clamp method.
(3) Measurement of Ion Channel Current by Patch Clamp Method (Human Kv1.5-Expressing CHO-K1 Cell Line)
An experiment was carried out using a patch clamp setup at room temperature (20 to 26° C.). A perfusion chamber having a diameter of 20 mm (flow rate: about 5 ml/min) was mounted on the stage of a phase-contrast inverted microscope (produced by Nikon Corporation) placed on a vibration isolated table. A poly-L-lysine (produced by Sigma)-coated coverslip (diameter: 15 mm, produced by Matsunami Glass Ind., Ltd.) on which human Kv1.5-expressing cells were cultured was placed in the perfusion chamber.
Depolarizing stimulation pulses were applied and ionic current was recorded by using a patch clamp amplifier (EPC-7 or EPC-7 PLUS, produced by HEKA) and a personal computer (manufactured by IBM Corp.) in which software for data acquisition and analysis of ion channel current (PULSE 8.77, produced by HEKA) was installed. The current was measured in the whole-cell configuration of the patch-clamp technique. The tip (resistance: 2 to 4 MΩ) of a borosilicate glass pipette (produced by Sutter Instrument Co.) was gently placed on the cell membrane by using a three-dimensional mechanical micromanipulator (produced by Shoshin EM Corporation). […] Subsequently, stronger suction was applied to break the cell membrane. The capacitative current derived from the cell membrane was corrected using a patch clamp amplifier. Subsequently, the series resistance (Rs) between the pipette and the interior of the cell was measured and corrected.
The composition of the extracellular solution used is shown below. Unless otherwise specified, these components were obtained from Wako Pure Chemical Industries, Ltd.
Each test compound was prepared as a 1000-fold concentrated stock solution that was dissolved in DMSO and then diluted in the extracellular solution.
The composition of the electrode internal solution used is shown below. Unless otherwise specified, these components were obtained from Wako Pure Chemical Industries, Ltd.
(5) Measurement of Human Kv1.5 Current
While the membrane potential was bolded at −80 mV, depolarizing pulses (−80 mV for 0.05 seconds→+40 mV for 0.2 seconds →−40 mV for 0.2 seconds→−80 mV for 0.05 seconds) were applied at a stimulation frequency of 1 Hz to measure Kv1.5 channel current. More specifically, first, while perfusing an extracellular solution containing 0.1% DMSO and holding the membrane potential at −80 mV, depolarizing pulses were applied. The current obtained during the pulse application was recorded as a current in the absence of the test compounds. […]

T1 sequence (P22460 whole entry): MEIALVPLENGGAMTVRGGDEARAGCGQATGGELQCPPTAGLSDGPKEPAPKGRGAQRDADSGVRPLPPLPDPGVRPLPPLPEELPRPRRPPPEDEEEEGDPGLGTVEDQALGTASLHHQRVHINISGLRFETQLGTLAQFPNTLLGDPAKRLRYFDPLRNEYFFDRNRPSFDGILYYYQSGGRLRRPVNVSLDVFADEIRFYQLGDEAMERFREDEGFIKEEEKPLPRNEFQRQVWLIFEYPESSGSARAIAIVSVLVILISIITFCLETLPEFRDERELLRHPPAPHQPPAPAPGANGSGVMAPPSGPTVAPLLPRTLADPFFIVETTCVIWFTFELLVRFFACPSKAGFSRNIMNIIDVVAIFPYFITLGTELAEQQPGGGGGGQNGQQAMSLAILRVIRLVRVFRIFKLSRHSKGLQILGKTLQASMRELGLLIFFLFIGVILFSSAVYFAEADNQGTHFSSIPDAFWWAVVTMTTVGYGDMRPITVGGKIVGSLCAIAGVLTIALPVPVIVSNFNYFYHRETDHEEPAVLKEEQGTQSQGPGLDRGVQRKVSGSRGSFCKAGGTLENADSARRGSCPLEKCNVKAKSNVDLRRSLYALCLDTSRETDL

Row | SMILES | IC50 [nM]
1 | CCN1C(=O)C(C)(C)C(=O)N(C)c2cc(OCCCN(CCc3cccnc3)Cc3ccncc3)ccc21 [Example 8, 1-ethyl-3,3,5-trimethyl-7-{3-[(2-pyridin-3-ylethyl)pyridin-4-ylmethylamino]propoxy}-1,5-dihydrobenzo[b][1,4]diazepine-2,4-dione trihydrochloride] | 400
2 | CCCN1C(=O)C(C)(C)C(=O)N(C)c2cc(OCCCN(CCc3cccnc3)Cc3ccncc3)ccc21 [Example 10, 3,3,5-trimethyl-1-propyl-7-{3-[(2-pyridin-3-ylethyl)pyridin-4-ylmethylamino]propoxy}-1,5-dihydrobenzo[b][1,4]diazepine-2,4-dione trihydrochloride] | 580
3 | CCN1C(=O)C(C)(C)C(=O)N(CC)c2cc(OCCCN(CCc3cccnc3)Cc3ccncc3)ccc21 [Example 14, 1,5-diethyl-3,3-dimethyl-7-{3-[(2-pyridin-3-ylethyl)pyridin-4-ylmethylamino]propoxy}-1,5-dihydrobenzo[b][1,4]diazepine-2,4-dione trihydrochloride] | 580
4 | CN1C(=O)C(C)(C)C(=O)N(C)c2cc(OCCCN(CCc3cccnc3)Cc3ccncc3)ccc21 [Example 19, 1,3,3,5-tetramethyl-7-{3-[(2-pyridin-3-ylethyl)pyridin-4-ylmethylamino]propoxy}-1,5-dihydrobenzo[b][1,4]diazepine-2,4-dione trihydrochloride] | 540
5 | CCN1C(=O)C(C)(C)C(=O)N(C)c2cc(OCCCN(CCn3ccc4ccccc4c3=O)Cc3ccncc3)ccc21 [Example 23, 1-ethyl-3,3,5-trimethyl-7-(3-{[2-(1-oxo-1H-isoquinolin-2-yl)ethyl]pyridin-4-ylmethylamino}propoxy)-1,5-dihydrobenzo[b][1,4]diazepine-2,4-dione dihydrochloride] | 180
6 | CCN1C(=O)C(C)(C)C(=O)N(C)c2cc(OCCCN(CCn3ccc4ccoc4c3=O)Cc3ccncc3)ccc21 [Example 31, 1-ethyl-3,3,5-trimethyl-7-(3-{[2-(7-oxo-7H-furo[2,3-c]pyridin-6-yl)ethyl]pyridin-4-ylmethylamino}propoxy)-1,5-dihydrobenzo[b][1,4]diazepine-2,4-dione dihydrochloride] | 1300
7 | CN(CCN(CCCOc1ccc2c(c1)N(C)C(=O)C(C)(C)C(=O)N2C)Cc1ccncc1)C(=O)c1ccccc1 [Example 45, N-methyl-N-(2-{pyridin-4-ylmethyl-[3-(1,3,3,5-tetramethyl-2,4-dioxo-2,3,4,5-tetrahydro-1H-benzo[b][1,4]diazepin-7-yloxy)propyl]amino}ethyl)benzamide dihydrochloride] | 690
8 | Cc1ccccc1CN(CCCOc1ccc2c(c1)N(C)C(=O)C(C)(C)C(=O)N2C)CCc1cccnc1 [Example 50, 1,3,3,5-tetramethyl-7-{3-[(2-methylbenzyl)-(2-pyridin-3-ylethyl)amino]propoxy}-1,5-dihydrobenzo[b][1,4]diazepine-2,4-dione dihydrochloride] | 250
9 | CN1C(=O)C(C)(C)C(=O)N(C)c2cc(OCCCN(CCc3cccnc3)Cc3ccnc4ccccc34)ccc21 [Example 51, 1,3,3,5-tetramethyl-7-{3-[(2-pyridin-3-ylethyl)-(quinolin-4-ylmethyl)amino]propoxy}-1,5-dihydrobenzo[b][1,4]diazepine-2,4-dione trihydrochloride] | 210
10 | CCN1C(=O)C(C)(C)C(=O)N(C)c2cc(OCCCN(CCc3cccnc3)Cc3ccncc3C)ccc21 [Example 54, 1-ethyl-3,3,5-trimethyl-7-{3-[(3-methylpyridin-4-ylmethyl)-(2-pyridin-3-ylethyl)amino]propoxy}-1,5-dihydrobenzo[b][1,4]diazepine-2,4-dione trihydrochloride] | 280
11 | CCN1C(=O)C(C)(C)C(=O)N(C)c2cc(OCCCN(CCn3c(=O)ccc4ccccc43)Cc3ccncc3)ccc21 [Example 63, 1-ethyl-3,3,5-trimethyl-7-(3-{[2-(2-oxo-2H-quinolin-1-yl)ethyl]pyridin-4-ylmethylamino}propoxy)-1,5-dihydrobenzo[b][1,4]diazepine-2,4-dione] | 240
12 | CCN1C(=O)C(C)(C)C(=O)N(C)c2cc(OCCCN(CCn3ccc4ccsc4c3=O)Cc3ccncc3)ccc21 [Example 68, 1-ethyl-3,3,5-trimethyl-7-(3-{[2-(7-oxo-7H-thieno[2,3-c]pyridin-6-yl)ethyl]pyridin-4-ylmethylamino}propoxy)-1,5-dihydrobenzo[b][1,4]diazepine-2,4-dione] | 380
13 | CCN1C(=O)C(C)(C)C(=O)N(C)c2cc(OCCCN(CCn3ccc4ccccc4c3=O)Cc3ccc(C#N)cc3)ccc21 [Example 85] | 150
14 | CCN1C(=O)C(C)(C)C(=O)N(C)c2cc(OCCCN(CCn3ccc4ccccc4c3=O)Cc3ccsc3)ccc21 [Example 125] | 190
15 | CCN1C(=O)C(C)(C)C(=O)N(C)c2cc(OCCCN(CCn3ccc4ccccc4c3=O)Cc3ccco3)ccc21 [Example 132] | 270
16 | CCN1C(=O)C(C)(C)C(=O)N(C)c2cc(OCCCN(CCc3cccnc3)Cc3ccccc3)ccc21 [Example 200] | 290
17 | CCN1C(=O)C(C)(C)C(=O)N(C)c2cc(OCCCN(CCc3cccnc3)Cc3cccc(C#N)c3)ccc21 [Example 229] | 160
18 | CCN1C(=O)C(C)(C)C(=O)N(C)c2cc(OCCCN(CCc3cccnc3)Cc3ccccc3-c3cccnc3)ccc21 [Example 242] | 180
19 | CCN1C(=O)C(C)(C)C(=O)N(C)c2cc(OCCCN(CCn3ccc4ccoc4c3=O)Cc3ccc(C#N)cc3)ccc21 [Example 380] | 160
20 | CCN1C(=O)C(C)(C)C(=O)N(C)c2cc(OCCCN(CCn3ccc4ccoc4c3=O)Cc3ccc(C(F)(F)F)cc3)ccc21 [Example 395] | 190
21 | CCN1C(=O)C(C)(C)C(=O)N(C)c2cc(OCCCN(CCn3ccc4ccoc4c3=O)Cc3ccccc3C)ccc21 [Example 398] | 220
22 | CCN1C(=O)C(C)(C)C(=O)N(C)c2cc(OCCCN(CCn3ccc4ccoc4c3=O)Cc3cccs3)ccc21 [Example 417] | 180
23 | CCN1C(=O)C(C)(C)C(=O)N(C)c2cc(OCCCN(CCn3ccc4oc(C)cc4c3=O)Cc3ccncc3)ccc21 [Example 464, 1-ethyl-3,3,5-trimethyl-7-(3-{[2-(2-methyl-4-oxo-4H-furo[3,2-c]pyridin-5-yl)ethyl]pyridin-4-ylmethylamino}propoxy)-1,5-dihydrobenzo[b][1,4]diazepine-2,4-dione dihydrochloride] | 440
24 | CCN1C(=O)C(C)(C)C(=O)N(C)c2cc(OCCCN(CCn3ccc4occc4c3=O)Cc3cccnc3)ccc21 [Example 551, 1-ethyl-3,3,5-trimethyl-7-(3-{[2-(4-oxo-4H-furo[3,2-c]pyridin-5-yl)ethyl]pyridin-3-ylmethylamino}-propoxy)-1,5-dihydrobenzo[b][1,4]diazepine-2,4-dione] | 390
25 | CCN1C(=O)C(C)(C)C(=O)N(C)c2cc(OCCCN(CCn3ccc4sccc4c3=O)Cc3cccnc3)ccc21 [Example 568, 1-ethyl-3,3,5-trimethyl-7-(3-{[2-(4-oxo-4H-thieno[3,2-c]pyridin-5-yl)ethyl]pyridin-3-ylmethylamino}-propoxy)-1,5-dihydrobenzo[b][1,4]diazepine-2,4-dione] | 420
26 | CCN1C(=O)C(C)(C)C(=O)N(C)c2cc(OCCCN(CCn3ccc4oc(C)cc4c3=O)Cc3cnccc3C)ccc21 [Example 573, 1-ethyl-3,3,5-trimethyl-7-{3-[[2-(2-methyl-4-oxo-4H-furo[3,2-c]pyridin-5-yl)ethyl]-(4-methylpyridin-3-ylmethyl)amino]propoxy}-1,5-dihydrobenzo[b][1,4]diazepine-2,4-dione] | 330
